In US20240239813A1, “KRAS INHIBITORS AND PHARMACEUTICAL USES THEREOF” (RISEN (SUZHOU) PHARMA TECH CO., LTD., priority 2022, published 2024):
pIC50: −log10 of the molar value.

Assays:
Format in all cases: cell-based
[1] = test system: phosphorylation of p-ERK1/2 in MKN-1; assay: Cellular phospho-ERK inhibition, MKN-1; conditions: Homo sapiens; MKN-1, 4 hours
Procedure: (§1) The ability of exemplary test compounds to inhibit the phosphorylation of p-ERK1/2, which is the downstream effector of KRas in multiple human cancer cell lines such as AsPC-1 (Cobioer, CBP60546), GP2D (Cobioer, CBP60683), NCI-H358 (Cobioer, CBP60544), NCI-H727 (Cobioer, CBP60182), MKN-1 (Cobioer, CBP60486), HCT116 (ATCC, CCL-247), and HT-29 (Cobioer, CBP60011), was measured. Signal reflecting cell proliferation was detected with the Advanced phospho-ERK (Thr202/Tyr204) cellular kit (Cisbio, 64AERPEG).
(§2) Cells were cultured in the growth phase and 3×10^4 cells per well were plated in a 96-well plate (Corning, 3599). Cells were incubated 24 hours at 37° C. and 5% carbon dioxide in a humidity chamber. Serially diluted exemplary compounds were added to the cell plate which was then incubated for another 4 hours in a humid tray at 37° C. and 5% carbon dioxide. 1× Lysis buffer (Cisbio, 64AERPEG) was prepared at ambient temperature. Cell culture medium was removed, then lysis buffer (50 μL/well) was added to the cell plate and the plate was incubated at room temperature for 30 minutes on a shaker. […] The luminescent signal was measured on the VICTOR Nivo multimode plate reader according to the manufacturer's instructions. […]
(§3) IC50 was determined by fitting percent inhibition at each inhibitor concentration to the four-parameter nonlinear logistic equation using GraphPad Prism. […]

[2] = test system: phosphorylation of p-ERK1/2 in NCI-H358; assay: Cellular phospho-ERK inhibition, NCI-H358; conditions: Homo sapiens; NCI-H358, 4 hours
Procedure: as §1, §2, §3

[3] = test system: phosphorylation of p-ERK1/2 in HCT-116; assay: Cellular phospho-ERK inhibition, HCT-116; conditions: Homo sapiens; HCT-116, 4 hours
Procedure: as §1, §2, §3

[4] = test system: phosphorylation of p-ERK1/2 in NCI-H727; assay: Cellular phospho-ERK inhibition, NCI-H727; conditions: Homo sapiens; NCI-H727, 4 hours
Procedure: as §1, §2, §3

[5] = test system: phosphorylation of p-ERK1/2 in AsPC-1; assay: Cellular phospho-ERK inhibition, AsPC-1; conditions: Homo sapiens, ASPC1; AsPC-1, 4 hours
Procedure: as §1, §2, §3

[6] = test system: phosphorylation of p-ERK1/2 in HT-29; assay: Cellular phospho-ERK inhibition, HT-29; conditions: Homo sapiens; HT-29, 4 hours
Procedure: as §1, §2, §3

[7] = test system: phosphorylation of p-ERK1/2 in GP2D; assay: Cellular phospho-ERK inhibition, GP2D; conditions: Homo sapiens, 4 hours
Procedure: as §1, §2, §3

pIC50 [1]: 8.08
pIC50 [2]: 7.08
pIC50 [3]: 6.76
pIC50 [4]: 6.96
pIC50 [5]: 7.76
pIC50 [6]: < 6.00
pIC50 [7]: 8.47
SMILES: CCc1c(F)ccc2cc(O)cc(-c3ncc4c(N5CCCC6(CCO6)C5)nc(OC[C@@]56CCCN5C[C@H](F)C6)nc4c3F)c12 (stereo partly shown) [Compound 25]
